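1) Cells in 96-well plates. 2) Compound, 48 h, 5 concentrations. 3) Linear interpolation between surrounding doses. 4) Unreached endpoint = highest concentration. The concentration for full growth arrest is given as TGI.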
Tests used:
Assay in all cases: DTP human tumour cell line panel, 48 h
LOX IMVI melanoma = system: LOX IMVI melanoma
T-47D breast = system: T-47D breast
SK-MEL-5 melanoma = system: SK-MEL-5 melanoma
HL-60(TB) leukemia = system: HL-60(TB) leukemia
HS 578T breast = system: HS 578T breast
MOLT-4 leukemia = system: MOLT-4 leukemia
786-0 renal = system: 786-0 renal
SK-OV-3 ovarian = system: SK-OV-3 ovarian
CAKI-1 renal = system: CAKI-1 renal
NCI-H23 lung = system: NCI-H23 lung
A549 NSCLC = system: A549 NSCLC
K-562 leukemia = system: K-562 leukemia
SK-MEL-2 melanoma = system: SK-MEL-2 melanoma
CCRF-CEM leukemia = system: CCRF-CEM leukemia
RPMI-8226 leukemia = system: RPMI-8226 leukemia
HT29 colon = system: HT29 colon
MDA-N = system: MDA-N
NCI-H460 lung = system: NCI-H460 lung
NCI-H522 lung = system: NCI-H522 lung
MALME-3M melanoma = system: MALME-3M melanoma
MDA-MB-435 = system: MDA-MB-435
OVCAR-5 ovarian = system: OVCAR-5 ovarian
SF-295 CNS = system: SF-295 CNS
DU-145 prostate = system: DU-145 prostate
EKVX NSCLC = system: EKVX NSCLC
SN12C renal = system: SN12C renal
IGROV1 ovarian = system: IGROV1 ovarian
SNB-75 CNS = system: SNB-75 CNS
TK-10 renal = system: TK-10 renal
BT-549 breast = system: BT-549 breast
COLO 205 colon = system: COLO 205 colon
ACHN renal = system: ACHN renal
MCF7 breast = system: MCF7 breast
MDA-MB-231 breast = system: MDA-MB-231 breast
HOP-92 NSCLC = system: HOP-92 NSCLC
OVCAR-4 ovarian = system: OVCAR-4 ovarian
NCI-H226 lung = system: NCI-H226 lung
OVCAR-8 ovarian = system: OVCAR-8 ovarian
SF-539 CNS = system: SF-539 CNS
A498 renal = system: A498 renal
OVCAR-3 ovarian = system: OVCAR-3 ovarian
U251 CNS = system: U251 CNS
PC-3 prostate = system: PC-3 prostate
UO-31 renal = system: UO-31 renal
SW-620 colon = system: SW-620 colon
HCT-15 colon = system: HCT-15 colon
M14 melanoma = system: M14 melanoma
KM12 colon = system: KM12 colon
HOP-62 NSCLC = system: HOP-62 NSCLC
SF-268 CNS = system: SF-268 CNS
RXF 393 renal = system: RXF 393 renal
NCI/ADR-RES ovarian = system: NCI/ADR-RES ovarian
SR leukemia = system: SR leukemia
UACC-257 melanoma = system: UACC-257 melanoma
UACC-62 melanoma = system: UACC-62 melanoma
SK-MEL-28 melanoma = system: SK-MEL-28 melanoma
SNB-19 CNS = system: SNB-19 CNS
HCT-116 colon = system: HCT-116 colon
HCC-2998 colon = system: HCC-2998 colon

O=c1[nH]cnc2[nH]cc(CN3CCCCC3)c12 gave a TGI (LOX IMVI melanoma) of over 100 µM, a TGI (T-47D breast) of over 100 µM and a TGI (SK-MEL-5 melanoma) of over 100 µM. It also gave a TGI (HL-60(TB) leukemia) of 38.2 µM, a TGI (HS 578T breast) of over 100 µM and a TGI (MOLT-4 leukemia) of over 100 µM. It also gave a TGI (786-0 renal) of over 100 µM, a TGI (SK-OV-3 ovarian) of over 100 µM and a TGI (CAKI-1 renal) of over 100 µM. The TGI (NCI-H23 lung) was over 100 µM, the TGI (A549 NSCLC) was over 100 µM and the TGI (K-562 leukemia) was over 100 µM. It also gave a TGI (SK-MEL-2 melanoma) of over 100 µM, a TGI (CCRF-CEM leukemia) of 36.2 µM and a TGI (RPMI-8226 leukemia) of 87.2 µM. It also gave a TGI (HT29 colon) of over 100 µM, a TGI (MDA-N) of over 100 µM and a TGI (NCI-H460 lung) of 43.8 µM. For the same molecule, the TGI (NCI-H522 lung) was over 100 µM, the TGI (MALME-3M melanoma) was over 100 µM and the TGI (MDA-MB-435) was over 100 µM. For the same molecule, the TGI (OVCAR-5 ovarian) was over 100 µM, the TGI (SF-295 CNS) was over 100 µM and the TGI (DU-145 prostate) was over 100 µM. It also gave a TGI (EKVX NSCLC) of over 100 µM, a TGI (SN12C renal) of over 100 µM and a TGI (IGROV1 ovarian) of over 100 µM. It also gave a TGI (SNB-75 CNS) of over 100 µM, a TGI (TK-10 renal) of over 100 µM and a TGI (BT-549 breast) of over 100 µM. For the same molecule, the TGI (COLO 205 colon) was over 100 µM, the TGI (ACHN renal) was over 100 µM and the TGI (MCF7 breast) was over 100 µM. It also gave a TGI (MDA-MB-231 breast) of over 100 µM, a TGI (HOP-92 NSCLC) of over 100 µM and a TGI (OVCAR-4 ovarian) of over 100 µM. It also gave a TGI (NCI-H226 lung) of over 100 µM, a TGI (OVCAR-8 ovarian) of over 100 µM and a TGI (SF-539 CNS) of over 100 µM. It also gave a TGI (A498 renal) of over 100 µM, a TGI (OVCAR-3 ovarian) of over 100 µM and a TGI (U251 CNS) of over 100 µM. The TGI (PC-3 prostate) was over 100 µM, the TGI (UO-31 renal) was over 100 µM and the TGI (SW-620 colon) was over 100 µM. The TGI (HCT-15 colon) was over 100 µM, the TGI (M14 melanoma) was over 100 µM and the TGI (KM12 colon) was over 100 µM. The TGI (HOP-62 NSCLC) was over 100 µM, the TGI (SF-268 CNS) was over 100 µM and the TGI (RXF 393 renal) was over 100 µM. It also gave a TGI (NCI/ADR-RES ovarian) of over 100 µM, a TGI (SR leukemia) of over 100 µM and a TGI (UACC-257 melanoma) of 87.3 µM. For the same molecule, the TGI (UACC-62 melanoma) was over 100 µM, the TGI (SK-MEL-28 melanoma) was over 100 µM and the TGI (SNB-19 CNS) was over 100 µM. The TGI (HCT-116 colon) was 30.6 µM.

O=C(N/N=C\c1c(O)ccc2ccccc12)c1ccncc1 was tested, and the TGI (LOX IMVI melanoma) was over 25 µM, the TGI (T-47D breast) was over 25 µM and the TGI (SK-MEL-5 melanoma) was over 9.41 µM. It also gave a TGI (HL-60(TB) leukemia) of 5.91 µM, a TGI (HS 578T breast) of over 25 µM and a TGI (786-0 renal) of over 25 µM. It also gave a TGI (SK-OV-3 ovarian) of 24.3 µM, a TGI (CAKI-1 renal) of over 4.94 µM and a TGI (NCI-H23 lung) of over 25 µM. For the same molecule, the TGI (A549 NSCLC) was over 25 µM, the TGI (SK-MEL-2 melanoma) was over 9.41 µM and the TGI (RPMI-8226 leukemia) was over 5.06 µM. For the same molecule, the TGI (HT29 colon) was over 25 µM, the TGI (MDA-N) was over 25 µM and the TGI (NCI-H460 lung) was over 6.82 µM. It also gave a TGI (NCI-H522 lung) of over 7.49 µM, a TGI (MALME-3M melanoma) of over 7.77 µM and a TGI (MDA-MB-435) of over 25 µM. The TGI (OVCAR-5 ovarian) was over 25 µM, the TGI (SF-295 CNS) was over 25 µM and the TGI (DU-145 prostate) was over 25 µM. For the same molecule, the TGI (EKVX NSCLC) was over 25 µM, the TGI (SN12C renal) was over 5.5 µM and the TGI (IGROV1 ovarian) was 1.84 µM. For the same molecule, the TGI (SNB-75 CNS) was over 25 µM, the TGI (TK-10 renal) was over 25 µM and the TGI (BT-549 breast) was over 8.19 µM. The TGI (COLO 205 colon) was over 14.2 µM, the TGI (ACHN renal) was over 13.5 µM and the TGI (MCF7 breast) was over 7.75 µM. It also gave a TGI (HCC-2998 colon) of over 25 µM, a TGI (MDA-MB-231 breast) of over 5.71 µM and a TGI (HOP-92 NSCLC) of 18.8 µM. It also gave a TGI (OVCAR-4 ovarian) of over 22.2 µM, a TGI (NCI-H226 lung) of 2.67 µM and a TGI (OVCAR-8 ovarian) of over 25 µM. The TGI (SF-539 CNS) was 8.2 µM, the TGI (A498 renal) was over 15.6 µM and the TGI (OVCAR-3 ovarian) was over 25 µM. It also gave a TGI (U251 CNS) of over 25 µM, a TGI (PC-3 prostate) of over 25 µM and a TGI (UO-31 renal) of 3.95 µM. For the same molecule, the TGI (SW-620 colon) was over 25 µM, the TGI (HCT-15 colon) was over 25 µM and the TGI (M14 melanoma) was over 19.4 µM. The TGI (KM12 colon) was over 25 µM, the TGI (HOP-62 NSCLC) was over 25 µM and the TGI (RXF 393 renal) was over 8.59 µM. The TGI (NCI/ADR-RES ovarian) was over 8.64 µM, the TGI (SR leukemia) was over 25 µM and the TGI (UACC-257 melanoma) was over 25 µM. For the same molecule, the TGI (UACC-62 melanoma) was 2.04 µM, the TGI (SK-MEL-28 melanoma) was over 25 µM and the TGI (SNB-19 CNS) was over 25 µM. It also gave a TGI (HCT-116 colon) of over 25 µM.

Source: PubChem BioAssay (NCI)
